Results from BindingDB's records for patent US12168664 (Columbia University, 2024).

Molecular target: Retinol-binding protein 4 (Homo sapiens, UniProt P02753)
Assay: Scintillation Proximity RBP4 Binding Assay
Method: Untagged human RBP4 purified from the urine of tubular proteinuria patients was purchased from Fitzgerald Industries International. It was biotinylated using the EZ-Link Sulfo-NHS-LC-Biotinylation kit from Pierce following the manufacturer's recommendations. […] Nonspecific binding was determined in the presence of 20 μM of unlabeled retinol. The reaction mix was assembled in the dark under dim red light. The plates were sealed with clear tape (TopSeal-A: 96-well microplate, PerkinElmer), wrapped in the aluminum foil, and allowed to equilibrate 6 hours at room temperature followed by overnight incubation at +4° C. Radiocounts were measured using a TopCount NXT counter (Packard Instrument Company).

IC50	SMILES
> 3 µM	O=C(c1c[nH]c2cnccc12)N1C[C@H]2C[C@@H](c3ccccc3C(F)(F)F)C[C@H]2C1 [US12168664, Compound 8a]
> 3 µM	O=C(c1c[nH]c2ccncc12)N1C[C@H]2C[C@@H](c3ccccc3C(F)(F)F)C[C@H]2C1 [US12168664, Compound 8b]
